# Where a name gives a salt, the structure may show the parent alone. Read-outs that look alike come from different tables or passages of the source. Ends that are not written are not given here.
# How the values were obtained:
# [1] = tested on: NCI-H292 lung cancer cells; experiment: FDA drug screening, complete media vs cholesterol-free media with simvastatin (TABLE 2); assay type: cell-based, human
# [2] = tested on: NCI-H292 lung cancer cells; experiment: FDA drug screening, complete media vs cholesterol-free media without statin (TABLE 1); assay type: cell-based, human
# [3] = NCI-H292 cells, FDA drug library screen, cholesterol-free media with simvastatin 0.04 μM
# [4] = NCI-H292 cells, FDA drug library screen, complete media
# [5] = complete media minus cholesterol-free media + simvastatin, >0 enhanced anti-cancer activity, about 0 neutral, <0 antagonist
# [6] = Complete minus Cholesterol-free, greater than 0 enhanced anti-cancer activity, about 0 neutral, below 0 antagonists
# [7] = NCI-H292 cells in cholesterol-free media without statin
# [8] = NCI-H292 cells in complete media
# [9] = NCI-H292 cells, FDA library drug in cholesterol-free media with simvastatin 0.04 μM
# [10] = NCI-H292 cells, FDA library drug in complete media
# [11] = complete media vs cholesterol-free media + simvastatin (0.04 μM), >0 enhanced anti-cancer activity, about 0 neutral, <0 antagonist
# [12] = Complete minus Cholesterol-free, greater than 0 enhanced anti-cancer activity, about 0 neutral, below 0 antagonist
# [13] = NCI-H292 cells, FDA drug library screen, cholesterol-free media without statin
# [14] = NCI-H292 cells, drug in cholesterol-free media with simvastatin 0.04 μM
# [15] = NCI-H292 cells, drug in complete media
# [16] = NCI-H292 cells, cholesterol-free media with simvastatin 0.04 μM, FDA drug library screen (TABLE 2)
# [17] = NCI-H292 cells, complete media, FDA drug library screen (TABLE 2)
# [18] = complete media minus cholesterol-free media + simvastatin (0.04 μM), >0 enhanced anti-cancer activity, about 0 neutral, <0 antagonist
# [19] = NCI-H292 cells, cholesterol-free media without statin, FDA drug library screen
# [20] = NCI-H292 cells, complete media, FDA drug library screen
# [21] = complete vs cholesterol-free media, […]
# [22] = NCI-H292 cells, cholesterol-free media with simvastatin 0.04 μM, cell growth value in FDA drug screen
# [23] = NCI-H292 cells, complete media, cell growth value in FDA drug screen
# [24] = Complete minus Cholesterol-free, >0 enhanced anti-cancer activity, about 0 neutral, <0 antagonist
# [25] = NCI-H292 cells, cholesterol-free media without statin
# [26] = complete vs cholesterol-free media, >0 enhanced anti-cancer activity, about 0 neutral, <0 antagonist
molecule,measurement,setting,value
CC(C)(Oc1ccc(C(=O)c2ccc(Cl)cc2)cc1)C(=O)[O-].C[N+](C)(C)CCO [Choline Fenofibrate],Cholesterol-free media + simvastatin (0.04 μM),[1]; [3],1.101
same,Complete Media,[1]; [4],1.295
same,Difference,[1]; [5],0.19
same,Difference,[2]; [6],−0.65
same,Cholesterol-free,[2]; [7],1.252
same,Complete,[2]; [8],0.6045
Nc1ncnc2c1ncn2[C@@H]1O[C@H](CO)[C@@H](O)[C@H]1O [Adenosine],Cholesterol-free media + simvastatin (0.04 μM),[1]; [9],1.888
same,Complete Media,[1]; [10],1.6
same,Difference,[1]; [11],−0.29
same,Difference,[2]; [12],−0.14
same,Complete,[2]; [4],0.8055
CC(C)(C)CC(C)(C)c1ccc(OCCOCC[N+](C)(C)Cc2ccccc2)cc1 [Benzethonium chloride],Cholesterol-free media + simvastatin (0.04 μM),[1],0.6785
same,Complete Media,[1],0.4348
same,Difference,[1],−0.24
same,Cholesterol-free,[2],0.07505
same,Complete,[2],0.2197
same,Difference,[2],0.14
CCOc1ccc(NC(C)=O)cc1 [Phenacetin],Cholesterol-free media + simvastatin (0.04 μM),[1]; [3],1.132
same,Complete Media,[1]; [4],1.048
same,Difference,[1]; [11],−0.08
same,Difference,[2]; [12],−0.09
same,Cholesterol-free,[2]; [13],0.9552
same,Complete,[2]; [4],0.8688
NCCc1c[nH]c2ccc(O)cc12 [Serotonin hydrochloride],Cholesterol-free media + simvastatin (0.04 μM),[1]; [14],1.379
same,Complete Media,[1]; [15],1.18
same,Difference,[1]; [11],−0.20
same,Difference,[2]; [6],−0.64
same,Cholesterol-free,[2]; [7],1.639
same,Complete,[2]; [8],1.003
C[C@H]1O[C@@H](n2cc(F)c(=O)[nH]c2=O)[C@H](O)[C@@H]1O [Doxifluridine],Cholesterol-free media + simvastatin (0.04 μM),[1]; [16],1.085
same,Complete Media,[1]; [17],1.031
same,Difference,[1]; [18],−0.05
same,Difference,[2]; [6],−0.49
same,Cholesterol-free,[2]; [7],1.329
same,Complete,[2]; [8],0.8392
Thymopentin (acetate),Complete Media,[1]; [17],1.151
same,Difference,"[1]; complete media minus cholesterol-free media + simvastatin (0.04 μM), […]",0.00
same,Cholesterol-free,[2]; [19],0.9838
same,Complete,[2]; [20],1.095
same,Difference,[2]; [21],0.11
CCOC(=O)N1CCC(=C2c3ccc(Cl)cc3CCc3cccnc32)CC1 [Loratadine],Cholesterol-free media + simvastatin (0.04 μM),[1]; [22],0.8147
same,Complete Media,[1]; [23],0.9097
same,Difference,[1]; [5],0.10
same,Difference,[2]; [24],−0.30
same,Cholesterol-free,[2]; [25],1.122
same,Complete,"[2]; NCI-H292 cells, complete media",0.8264
Cc1nc(C)c(C)nc1C [Ligustrazine (hydrochloride)],Cholesterol-free media + simvastatin (0.04 μM),[1]; [14],1.229
same,Complete Media,[1]; [15],1.02
same,Difference,[1]; [11],−0.21
same,Difference,[2]; [24],−0.06
same,Cholesterol-free,[2]; [19],1.047
same,Complete,[2]; [20],0.9829
O=c1cc[nH]c(=O)[nH]1 [Uracil],Cholesterol-free media + simvastatin (0.04 μM),[1]; [9],1.203
same,Complete Media,[1]; [10],0.8949
same,Difference,[1]; [11],−0.31
same,Difference,[2]; [12],−0.17
same,Cholesterol-free,[2]; [13],1.032
same,Complete,[2]; [4],0.8653
CO[C@@]1(NC(=O)Cc2cccs2)C(=O)N2C(C(=O)O)=C(COC(N)=O)CS[C@@H]21 [Cefoxitin (sodium)],Cholesterol-free media + simvastatin (0.04 μM),[1]; [16],0.9202
same,Complete Media,[1]; [17],0.8818
same,Difference,[1]; [18],−0.04
same,Difference,[2]; [6],−0.48
same,Cholesterol-free,[2]; [7],1.299
same,Complete,[2]; [8],0.8161
CC(C)(Oc1ccc(C(=O)c2ccc(Cl)cc2)cc1)C(=O)O [Fenofibric acid],Cholesterol-free media + simvastatin (0.04 μM),[1]; [22],0.9473
same,Complete Media,[1]; [23],1.061
same,Difference,[1]; [5],0.11
same,Cholesterol-free,[2]; [25],1.435
same,Complete,"[2]; NCI-H292 cells, complete media",1.058
same,Difference,"[2]; complete vs cholesterol-free media, greater than 0 enhanced anti-cancer activity, about 0 neutral, below 0 antagonists",−0.38
CC(=O)c1ccc(O)c(C(=O)O)c1 [5-Acetylsalicylic acid],Cholesterol-free media + simvastatin (0.04 μM),[1]; [9],1.188
same,Complete Media,[1]; [10],0.8198
same,Difference,[1]; [11],−0.37
same,Cholesterol-free,[2]; [19],0.912
same,Complete,[2]; [20],1.045
same,Difference,[2]; [26],0.13
CCOc1ccc2ccccc2c1C(=O)N[C@@H]1C(=O)N2[C@@H]1SC(C)(C)[C@@H]2C(=O)O [Nafcillin (sodium monohydrate)],Cholesterol-free media + simvastatin (0.04 μM),[1]; [3],0.8693
same,Difference,[1]; [5],0.30
same,Difference,[2]; [6],−1.00
same,Cholesterol-free,[2]; [7],1.957
same,Complete,[2]; [8],0.9538
"Argipressin (CYFQNCPRG; not fully specified (C-terminus, bridges); cysteine pairing not given here; UniProt P01185 20-28, looked up)",Cholesterol-free media + simvastatin (0.04 μM),[1]; [9],1.506
same,Complete Media,[1]; [10],1.167
same,Difference,"[1]; complete media vs cholesterol-free media + simvastatin (0.04 μM), […]",−0.34
same,Difference,"[2]; Complete minus Cholesterol-free, […]",−0.56
same,Cholesterol-free,[2]; [7],1.358
same,Complete,[2]; [8],0.7951
COC(=O)c1cccc(CCN(C)CCC[C@@](C#N)(c2ccc(OC)c(OC)c2)C(C)C)c1 [Etripamil],Cholesterol-free media + simvastatin (0.04 μM),"[1]; NCI-H292 cells, cholesterol-free media with simvastatin 0.04 μM, […]",0.8109
same,Complete Media,"[1]; NCI-H292 cells, complete media, […]",0.8724
same,Difference,"[1]; complete media minus cholesterol-free media + simvastatin, […]",0.06
same,Cholesterol-free,[2]; [25],1.343
same,Complete,"[2]; NCI-H292 cells, complete media",0.9721
same,Difference,[2]; [21],−0.37
Cc1cccc(Cc2c[nH]cn2)c1C [Detomidine (hydrochloride)],Cholesterol-free media + simvastatin (0.04 μM),[1]; [3],1.019
same,Complete Media,[1]; [4],0.9319
same,Difference,[1]; [11],−0.09
same,Difference,[2]; [6],−0.47
same,Cholesterol-free,[2]; [7],1.106
same,Complete,[2]; [8],0.6322
Solifenacin (Succinate),Cholesterol-free media + simvastatin (0.04 μM),[1],0.8847
same,Complete Media,[1],0.7655
same,Difference,[1],−0.12
same,Cholesterol-free,[2],1.612
same,Complete,[2],1.244
same,Difference,[2],−0.37
C=CCN1CCc2nc(N)sc2CC1 [Talipexole dihydrochloride],Cholesterol-free media + simvastatin (0.04 μM),[1]; [14],1.333
same,Complete Media,[1]; [15],1.079
same,Difference,[1]; [11],−0.25
same,Difference,[2]; [12],−0.09
same,Cholesterol-free,[2]; [13],1.016
same,Complete,[2]; [4],0.9282
O=C1OC(OC(=O)c2cccnc2Nc2cccc(C(F)(F)F)c2)c2ccccc21 (stereo not drawn) [Talniflumate],Cholesterol-free media + simvastatin (0.04 μM),[1]; [14],1.554
same,Complete Media,[1]; [15],1.302
same,Difference,[1]; [11],−0.25
same,Cholesterol-free,[2]; [19],0.679
same,Complete,[2]; [20],1.267
same,Difference,[2]; [26],0.59
CC(C)C[C@H](NC(=O)CNC(=O)c1cc(Cl)ccc1Cl)B(O)O [Ixazomib],Cholesterol-free media + simvastatin (0.04 μM),[1]; [16],0.01223
same,Complete Media,[1]; [17],−0.009398
same,Difference,[1]; [18],−0.02
same,Difference,[2]; [24],−0.06
same,Cholesterol-free,[2]; [19],0.05045
same,Complete,[2]; [20],−0.01336
CC(C)CN(C[C@@H](O)[C@H](Cc1ccccc1)NC(=O)O[C@H]1CO[C@H]2OCC[C@H]21)S(=O)(=O)c1ccc(N)cc1 [Darunavir (Ethanolate)],Cholesterol-free media + simvastatin (0.04 μM),[1],1.545
same,Complete Media,[1],1.286
same,Difference,[1],−0.26
same,Cholesterol-free,[2],0.8952
same,Difference,[2],0.25
CNS(=O)(=O)CCc1ccc2[nH]cc(C3CCN(C)CC3)c2c1 [Naratriptan (hydrochloride)],Cholesterol-free media + simvastatin (0.04 μM),[1]; [14],1.179
same,Complete Media,[1]; [15],0.9588
same,Difference,[1]; [11],−0.22
same,Difference,[2]; [12],−0.17
same,Cholesterol-free,[2]; [13],1.077
same,Complete,[2]; [4],0.9077
Cc1onc(-c2ccccc2Cl)c1C(=O)N[C@@H]1C(=O)N2[C@@H]1SC(C)(C)[C@@H]2C(=O)O [Cloxacillin (sodium monohydrate)],Cholesterol-free media + simvastatin (0.04 μM),[1]; [22],1.045
same,Complete Media,[1]; [23],1.18
same,Difference,[1]; [5],0.13
same,Difference,[2]; [24],−0.19
same,Cholesterol-free,[2]; [25],1.114
same,Complete,"[2]; NCI-H292 cells, complete media",0.9266
CO[C@@]1(NC(=O)C2SC(=C(C(N)=O)C(=O)O)S2)C(=O)N2C(C(=O)O)=C(CSc3nnnn3C)CS[C@@H]21 (stereo partly drawn) [Cefotetan],Cholesterol-free media + simvastatin (0.04 μM),[1]; [14],1.2
same,Complete Media,[1]; [15],1.027
same,Difference,[1]; [11],−0.17
same,Difference,[2]; [24],−0.26
same,Cholesterol-free,[2]; [25],1.196
same,Complete,"[2]; NCI-H292 cells, complete media",0.9309
COc1ccc2c(c1)N(C[C@H](C)CN(C)C)c1ccccc1S2 [Levomepromazine],Cholesterol-free media + simvastatin (0.04 μM),[1]; [3],0.8554
same,Complete Media,[1]; [4],1.084
same,Difference,[1]; [5],0.23
same,Difference,[2]; [24],0.01
same,Cholesterol-free,[2]; [19],0.8962
same,Complete,[2]; [20],0.9041
CCN1CCN(c2cc(-c3ccc(F)cc3)c3c(n2)CCCCCC3)CC1 [Blonanserin],Complete Media,[1]; [17],0.8939
same,Difference,[1]; [18],−0.05
same,Difference,[2]; [24],−0.06
same,Cholesterol-free,[2]; [19],1.144
same,Complete,[2]; [20],1.088
CNCC[C@@H](Oc1ccccc1C)c1ccccc1 [Atomoxetine (hydrochloride)],Cholesterol-free media + simvastatin (0.04 μM),[1]; [22],1.776
same,Complete Media,[1]; [23],1.803
same,Difference,[1]; [5],0.03
same,Difference,[2]; [6],−0.68
same,Cholesterol-free,[2]; [7],1.663
same,Complete,[2]; [8],0.988
N#Cc1ccc([C@H]2CCc3cncn32)c(F)c1 [Osilodrostat],Cholesterol-free media + simvastatin (0.04 μM),[1]; [3],1.26
same,Difference,[1]; [11],−0.11
same,Difference,[2]; [6],−0.71
same,Cholesterol-free,[2]; [7],1.647
same,Complete,[2]; [8],0.935
